Here are results for 16 compounds from PubChem BioAssay AID328 (DTP/NCI, 2004).

Values joined by “and” are separate entries in the source; they are usually repeats but may differ in a detail not shown here. Equal values may be shown once. Toxic doses and inconclusive results are not listed.

The test deals with BDF1 mice, P388 leukemia ip, median survival T/C. The test is described as follows: NCI In Vivo Anticancer Drug Screen. Data for tumor model P388 Leukemia (intraperitoneal) in B6D2F1 (BDF1) mice. To be noted: endpoint: median survival time, higher = longer survival. In short, it runs like this:
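Vehicle-dosed animals serve as the reference; survival of compound-dosed, tumour-implanted mice is divided by it.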

[1] abbreviates: dose: 100.0 mg/kg/injection, schedule: Q04DX003 (ip), vehicle: saline with Tween-80.
[2] abbreviates: dose: 200.0 mg/kg/injection, schedule: Q04DX003 (ip), vehicle: saline with Tween-80.
The mark [3] stands for this setting: dose: 400.0 mg/kg/injection, schedule: Q04DX003 (ip), vehicle: saline with Tween-80.
The mark [4] stands for this setting: dose: 50.0 mg/kg/injection, schedule: Q01DX009 (ip), vehicle: saline with Tween-80.
The mark [5] stands for this setting: dose: 100.0 mg/kg/injection, schedule: Q01DX009 (ip), vehicle: saline with Tween-80.
Setting [6] is: dose: 200.0 mg/kg/injection, schedule: Q01DX009 (ip), vehicle: saline with Tween-80.
Where [7] appears, read: dose: 400.0 mg/kg/injection, schedule: Q01DX009 (ip), vehicle: saline with Tween-80.

Take `N[C@@H](Cc1ccc(N(CCCl)CCCl)cc1)C(=O)O`: the T/C (dose: 0.5 mg/kg/injection, schedule: Q01DX009 (ip), vehicle: saline) is 167 % of control; the T/C (dose: 0.5 mg/kg/injection, schedule: Q01DX010 (ip), vehicle: saline) is 227 % of control; the T/C (dose: 1.0 mg/kg/injection, schedule: Q01DX009 (ip), vehicle: saline) is 245 % of control and 188 % of control; the T/C (dose: 1.0 mg/kg/injection, schedule: Q01DX010 (ip), vehicle: saline) is 277 % of control; the T/C (dose: 2.0 mg/kg/injection, schedule: Q01DX009 (ip), vehicle: saline) is 237 % of control and 254 % of control; the T/C (dose: 2.0 mg/kg/injection, schedule: Q01DX010 (ip), vehicle: saline) was 300 % of control. Also, the T/C (dose: 2.5 mg/kg/injection, schedule: Q04DX003 (ip), vehicle: water) is 205 % of control; the T/C (dose: 3.6 mg/kg/injection, schedule: Q01DX001 (ip), vehicle: saline) is 150 % of control and 181 % of control; the T/C (dose: 4.0 mg/kg/injection, schedule: Q01DX009 (ip), vehicle: saline) is 113 % of control; the T/C (dose: 4.0 mg/kg/injection, schedule: Q01DX010 (ip), vehicle: saline) is 113 % of control; the T/C (dose: 4.0 mg/kg/injection, schedule: Q04DX003 (ip), vehicle: Klucel (hydroxypropylcellulose) (HPC)) is 236 % of control; the T/C (dose: 6.0 mg/kg/injection, schedule: Q01DX001 (ip), vehicle: saline) was 167 % of control and 172 % of control. For the same compound, the T/C (dose: 10.0 mg/kg/injection, schedule: Q01DX001 (ip), vehicle: Klucel (hydroxypropylcellulose) (HPC)) is 227 % of control and 245 % of control; the T/C (dose: 12.5 mg/kg/injection, schedule: Q01DX001 (ip), vehicle: Klucel (hydroxypropylcellulose) (HPC)) is 240 % of control and 279 % of control; the T/C (dose: 15.0 mg/kg/injection, schedule: Q01DX001 (ip), vehicle: Klucel (hydroxypropylcellulose) (HPC)) is 295 % of control and 298 % of control; the T/C (dose: 17.5 mg/kg/injection, schedule: Q01DX001 (ip), vehicle: Klucel (hydroxypropylcellulose) (HPC)) is 286 % of control and 318 % of control; the T/C (dose: 20.0 mg/kg/injection, schedule: Q01DX001 (ip), vehicle: Klucel (hydroxypropylcellulose) (HPC)) is 254 % of control and 259 % of control; the T/C (dose: 40.0 mg/kg/injection, schedule: Q04DX003 (ip), vehicle: water) was 91 % of control and 96 % of control.

As to `O=C(CO)Nc1ccc(Br)cc1`, the T/C runs as follows: (dose: 50.0 mg/kg/injection, schedule: Q01DX009 (ip), vehicle: Klucel (hydroxypropylcellulose) (HPC)) 94 % of control; (dose: 100.0 mg/kg/injection, schedule: Q01DX009 (ip), vehicle: Klucel (hydroxypropylcellulose) (HPC)) 104 % of control; (dose: 200.0 mg/kg/injection, schedule: Q01DX009 (ip), vehicle: Klucel (hydroxypropylcellulose) (HPC)) 86 % of control.

As for `O=C1NC(=O)C(c2ccc(O)cc2)N1` (centres undefined), the T/C reads like this: under setting [1], 100 % of control; under setting [2], 109 % of control; under setting [3], 118 % of control.

In the case of `COCC(O)Cn1ccnc1[N+](=O)[O-]` (centres undefined), the T/C is 104 % of control (dose: 540.0 mg/kg/injection, schedule: Q01DX001 (ip), vehicle: saline); 92 % of control and 101 % of control (dose: 600.0 mg/kg/injection, schedule: Q01DX001 (ip), vehicle: saline); 107 % of control (dose: 900.0 mg/kg/injection, schedule: Q01DX001 (ip), vehicle: saline); 99 % of control (dose: 1000.0 mg/kg/injection, schedule: Q01DX001 (ip), vehicle: saline); 104 % of control (dose: 1500.0 mg/kg/injection, schedule: Q01DX001 (ip), vehicle: saline).

Consider `Clc1ccc(CNc2ncnc3[nH]ncc23)c(Cl)c1`, for which the T/C runs as follows: under setting [4], 104 % of control; under setting [5], 100 % of control; under setting [6], 90 % of control.

As for `CCOc1nsc(OCC)n1`, the T/C is 86 % of control (dose: 100.0 mg/kg/injection, schedule: Q01DX001 (ip), vehicle: Klucel (hydroxypropylcellulose) (HPC)) and 104 % of control (dose: 200.0 mg/kg/injection, schedule: Q01DX001 (ip), vehicle: Klucel (hydroxypropylcellulose) (HPC)).

Turning to `C(/C=C\c1ccccc1)=Nc1ccccc1`, the T/C (dose: 25.0 mg/kg/injection, schedule: Q01DX009 (ip), vehicle: saline) was 91 % of control; the T/C (dose: 25.0 mg/kg/injection, schedule: Q04DX003 (ip), vehicle: saline) was 95 % of control; the T/C (dose: 50.0 mg/kg/injection, schedule: Q01DX009 (ip), vehicle: saline) was 95 % of control; the T/C (dose: 50.0 mg/kg/injection, schedule: Q04DX003 (ip), vehicle: saline) was 100 % of control; the T/C (dose: 88.0 mg/kg/injection, schedule: Q01DX009 (ip), vehicle: saline with Tween-80) was 105 % of control; the T/C (dose: 100.0 mg/kg/injection, schedule: Q01DX009 (ip), vehicle: saline) was 104 % of control. The T/C is 104 % of control under setting [1]; 100 % of control (dose: 100.0 mg/kg/injection, schedule: Q04DX003 (ip), vehicle: saline); 110 % of control (dose: 132.0 mg/kg/injection, schedule: Q01DX009 (ip), vehicle: saline with Tween-80); 118 % of control under setting [2]; 110 % of control (dose: 300.0 mg/kg/injection, schedule: Q01DX009 (ip), vehicle: saline with Tween-80); 150 % of control under setting [7]. Moreover, under setting [3], the T/C is 118 % of control.

Consider `Cc1cc(NC(=O)Nc2ccc(Cl)cc2)no1`, for which the T/C runs as follows: under setting [4], 100 % of control; under setting [5], 100 % of control; under setting [6], 100 % of control.

As for `CCN(CC)C1=C(N(CC)CC)C(N(CC)CC)=C(N(CC)CC)C1=O.[C-]#[O+].[C-]#[O+].[C-]#[O+].[Fe]`, the T/C (dose: 100.0 mg/kg/injection, schedule: Q04DX003 (ip), vehicle: Klucel (hydroxypropylcellulose) (HPC)) was 101 % of control; the T/C (dose: 200.0 mg/kg/injection, schedule: Q04DX003 (ip), vehicle: Klucel (hydroxypropylcellulose) (HPC)) is 91 % of control; the T/C (dose: 400.0 mg/kg/injection, schedule: Q04DX003 (ip), vehicle: Klucel (hydroxypropylcellulose) (HPC)) was 115 % of control.

As to `NC(=S)c1ncc(N)s1`, the T/C is, setting by setting: (dose: 25.0 mg/kg/injection, schedule: Q01DX009 (ip), vehicle: saline with Tween-80) 89 % of control; under setting [4], 98 % of control; under setting [5], 106 % of control.

Consider `CCOc1ccc([N+](=O)[O-])cc1CN(CC)CC`, for which the T/C (dose: 5.0 mg/kg/injection, schedule: Q01DX009 (ip), vehicle: saline) is 104 % of control; the T/C (dose: 10.0 mg/kg/injection, schedule: Q01DX009 (ip), vehicle: saline) was 95 % of control and 100 % of control; the T/C (dose: 20.0 mg/kg/injection, schedule: Q01DX009 (ip), vehicle: saline) was 113 % of control.

With `CCOC(=O)C1=C(O)c2c(sc(C)c2-c2ccccc2)N(S(=O)(=O)c2ccc(C)cc2)CC1`, the T/C is, setting by setting: under setting [5], 100 % of control; under setting [6], 109 % of control; under setting [7], 95 % of control.

With `COc1cccc2c1C(=O)c1c(O)c3c(c(O)c1C2=O)C[C@@](O)(C(O)O)C[C@@H]3OC1CC(N)C(O)C(C)O1` (some centres undefined), the T/C reads like this: (dose: 4.0 mg/kg/injection, schedule: Q01DX009 (ip), vehicle: water) 169 % of control; (dose: 8.0 mg/kg/injection, schedule: Q01DX009 (ip), vehicle: water) 87 % of control; (dose: 16.0 mg/kg/injection, schedule: Q01DX009 (ip), vehicle: water) 87 % of control.

As to `CCS(=O)(=O)c1cccc2nncn12`, the T/C is, setting by setting: (dose: 100.0 mg/kg/injection, schedule: Q01DX001 (ip), vehicle: saline with Tween-80) 108 % of control; (dose: 200.0 mg/kg/injection, schedule: Q01DX001 (ip), vehicle: saline with Tween-80) 106 % of control; (dose: 400.0 mg/kg/injection, schedule: Q01DX001 (ip), vehicle: saline with Tween-80) 100 % of control.

For `O=C(O)CCC(=O)CCl`, the T/C (dose: 12.0 mg/kg/injection, schedule: Q01DX009 (ip), vehicle: saline) is 120 % of control.

Regarding `CCCCCCCCCC[N+](C)(C)CC(O)C[N+](C)(C)CCCCCCCCCC`, the T/C is 91 % of control and 109 % of control (dose: 1.56 mg/kg/injection, schedule: Q01DX009 (ip), vehicle: saline); 104 % of control (dose: 3.12 mg/kg/injection, schedule: Q01DX009 (ip), vehicle: saline); 100 % of control and 108 % of control (dose: 3.13 mg/kg/injection, schedule: Q01DX009 (ip), vehicle: saline); 100 % of control and 109 % of control and 120 % of control (dose: 6.25 mg/kg/injection, schedule: Q01DX009 (ip), vehicle: saline); 107 % of control and 109 % of control and 111 % of control (dose: 12.5 mg/kg/injection, schedule: Q01DX009 (ip), vehicle: saline).
